Values belong to the molecule of their own block, whether it stands above or below them. Ends that are not written are not given here.
Experiments:
[1] = target: T1, caspase-9-p12 binding to BIR3 (Homo sapiens, UniProt P98170); assay: In vitro binding of BIR3 to immobilized p12-GST with or without competing peptide; conditions: 200 μM peptide; p12-GST immobilized onto glutathione resin
T1 construct: made in house; host or cells: bacteria (GST fusion)
Protocol: (§1) The C-terminal GST fusion proteins were expressed in bacteria and then immobilized onto glutathione-affinity resin. […] The caspase-9 deletion mutants used in these studies are represented by bar diagrams above the panel in FIG. 10.
The interactions were analyzed as in Example 3.

[2] = target: T2, Smac/DIABLO binding to BIR3 (Homo sapiens, UniProt P98170); assay: In vitro binding of BIR3 to immobilized Smac-GST with or without competing peptide; conditions: 200 μM peptide; Smac-GST immobilized onto glutathione resin
T2 construct: Smac-GST was immobilized onto glutathione resin and then incubated with BIR3
T2 sequence (P98170 238-358 limits assumed): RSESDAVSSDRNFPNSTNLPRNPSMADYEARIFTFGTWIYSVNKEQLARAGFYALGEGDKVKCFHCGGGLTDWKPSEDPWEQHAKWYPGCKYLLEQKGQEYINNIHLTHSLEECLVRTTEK

XIAP [3] = target: T3, XIAP (Homo sapiens, UniProt P98170); assay: Cytochrome c-dependent caspase-3 activation in 293T S100 extracts containing XIAP (DEVD-AMC); format: biochemical; conditions: 25, 100 and 500 μM peptide, XIAP 10 nM, cytochrome c and dATP
T3 construct: made in house; host or cells: in vitro translation (cell-free)
T3 sequence (P98170 whole entry): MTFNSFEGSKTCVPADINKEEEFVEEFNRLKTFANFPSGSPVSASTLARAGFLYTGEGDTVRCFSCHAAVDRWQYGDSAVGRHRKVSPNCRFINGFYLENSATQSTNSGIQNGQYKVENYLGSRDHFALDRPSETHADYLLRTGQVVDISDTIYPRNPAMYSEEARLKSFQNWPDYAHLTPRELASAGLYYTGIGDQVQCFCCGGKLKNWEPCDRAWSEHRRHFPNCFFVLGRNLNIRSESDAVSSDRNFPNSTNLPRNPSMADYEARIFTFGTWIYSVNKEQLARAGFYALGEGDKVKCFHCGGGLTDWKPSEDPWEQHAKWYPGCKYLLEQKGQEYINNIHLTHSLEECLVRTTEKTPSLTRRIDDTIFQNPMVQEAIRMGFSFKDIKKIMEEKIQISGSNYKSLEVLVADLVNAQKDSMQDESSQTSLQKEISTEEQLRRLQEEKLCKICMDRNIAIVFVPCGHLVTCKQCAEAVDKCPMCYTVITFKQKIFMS
Protocol: The activity of caspase-3 in the S100 extracts was measured using the peptide substrate DEVD-AMC.

full length XIAP = target: T4, full length XIAP (Homo sapiens, UniProt P98170); assay: In vitro interaction assay of GST fusion proteins with 35S-labeled XIAP; format: binding; conditions: C-terminal GST fusion proteins immobilized onto glutathione-affinity resin
T4 construct: full length XIAP or the isolated BIR3 domain of XIAP; made in house; host or cells: in vitro translation (cell-free)
T4 sequence (P98170 whole entry, the tested form may be a part): as the sequence (P98170 whole entry) above
From the text: as §1

[4] = target: T5, isolated BIR3 domain of XIAP (Homo sapiens, UniProt P98170); assay: In vitro interaction assay of GST fusion proteins with 35S-labeled BIR3; format: binding; conditions: C-terminal GST fusion proteins immobilized onto glutathione-affinity resin
T5 construct: full length XIAP or the isolated BIR3 domain of XIAP; made in house; host or cells: in vitro translation (cell-free)
T5 sequence (P98170 238-358 limits assumed): as the sequence (P98170 238-358 limits assumed) above
From the text: as §1

XIAP [5] = target: T3, XIAP; assay: Far Western blot analysis with 35S-labeled XIAP; format: binding
Protocol: Recombinant WT caspase-9, E306/D315/D330A, D315/330A, or D315A caspase-9 mutants, p12, p10, or Smac/DIABLO GST-fusion proteins were fractionated by SDS-PAGE and then blotted onto a nitrocellulose membrane using standard Western blotting technique. The proteins on the nitrocellulose membrane were denatured in a buffer (10 mM sodium phosphate pH 7.4, 150 mM sodium chloride, 5 mM magnesium chloride and 1 mM DTT) containing 6 M guanidine-HCl. These proteins were then renatured by gradual reduction of guanidine-HCl to 0.3 M. The membrane was blocked overnight in the same buffer containing 5% non-fat dry milk. The membrane was then probed with ^35S-labeled in vitro translated XIAP in the same buffer with 1% non-fat dry milk. The membrane was washed at least three times and then exposed to X-ray film.

XIAP-BIR3 = target: T6, XIAP-BIR3 (Homo sapiens, UniProt P98170); assay: DEVD-AMC cleaving activity in caspase-9-depleted S100 extracts with or without XIAP-BIR3; format: biochemical; conditions: 10 nM caspase-9 protein; XIAP-BIR3 20 nM; DEVD-AMC 100 μM; 30 minutes
T6 construct: purified XIAP-BIR3 (20 nM)
T6 sequence (P98170 238-358 limits assumed): as above
Protocol: To test for enzymatic activity, caspase-9-depleted S100 extracts (20 μg) from Apaf-1-deficient mouse embryonic fibroblasts were incubated with recombinant Apaf-1, cytochrome c, dATP, and equal amounts (10 nM) of WT caspase-9 or the caspase-9 Δlinker mutant protein in the presence (+) or absence (−) of purified XIAP-BIR3 (20 nM). The reactions were carried out in the presence of the peptide substrate DEVD-AMC (100 μM) for 30 minutes, and substrate cleavage was measured by luminescence spectrometry.
To test for enzymatic activity, caspase-9-depleted S100 extracts (20 μg) from Apaf-1-deficient mouse embryonic fibroblasts were incubated with recombinant Apaf-1, cytochrome c, dATP, and equal amounts (10 nM) of WT caspase-9, caspase-9 AT316, 317SG, or AT316, 317GG mutant proteins in the presence (+) or absence (−) of purified XIAP-BIR3 (20 nM). The reactions were carried out in the presence of the peptide substrate DEVD-AMC (100 μM) for 30 minutes, and substrate cleavage was measured by luminescence spectrometry.

procaspase-3 C163A = assay: Procaspase-3 processing and DEVD-AMC cleavage by caspase-9 reconstituted with Apaf-1; format: biochemical; conditions: 20 nM each with purified Apaf-1; cytochrome c and dATP
Protocol: Procaspase-3 processing assays were generally performed as described in Srinivasula, S. M. et al. J Biol Chem 275:36152-36157, 2000. In this assay, purified recombinant procaspase-3 C163A was incubated with equal amounts of recombinant WT or triple mutant caspase-9 protein (20 nM) in the presence (+) or absence (−) of recombinant Apaf-1 (20 nM). The reaction mixtures were stimulated with cytochrome c (50 ng/μl) and dATP (1 mM), incubated for 0-60 minutes at 30° C., and then analyzed by SDS-PAGE and western blot analysis (FIG. 3).
Caspase-3 enzymatic assays with the tetrapeptide substrate DEVD-AMC were generally performed as described in Srinivasula, S. M. et al. J Biol Chem 275:36152-36157, 2000. In this caspase-3 enzymatic assay, caspase-9-depleted S100 extracts from Apaf-1-deficient mouse embryonic fibroblasts were incubated with equal amounts of recombinant WT and triple mutant caspase-9 proteins together with Apaf-1, cytochrome c and dATP. The controls used in these assays represent WT and triple mutant caspase-9 proteins incubated as above without cytochrome c and dATP. The reactions were carried out in the presence of 100 μM of DEVD-AMC for 0-120 minutes, and substrate cleavage was measured by luminescence spectrometry using a Perkin Elmer Luminescence spectrometer and represented in arbitrary spectrometric units.

[6] = target: T7, X-linked inhibitor of apoptosis protein (XIAP), full length (UniProt P98170 1-497); assay: gel filtration on Superose 6 and immunoblot of fractions
T7 construct: Used as in vitro translated 35S-labeled full length XIAP (pull-down, Far western) or as purified XIAP (holoenzyme experiments); also called full length XIAP; 35S-labeled XIAP
T7 sequence (P98170 whole entry): as the sequence (P98170 whole entry) above
Protocol: After incubation, the reaction mixtures were diluted with oligomerization buffer I, and aliquots of each sample (100 μl) were loaded onto a Superose 6 FPLC column.
Samples were then analyzed by SDS-PAGE and autoradiography.

T1 sequence (P98170 238-358 limits assumed): as the sequence (P98170 238-358 limits assumed) above

Molecule: ATPFQEGLRTFDQLD [linker peptide]
inhibition of Smac/DIABLO binding to BIR3 [2]: completely inhibited | promoting caspase-3 activation in XIAP containing extracts (XIAP [3]): as effective in promoting caspase-3 activation as the Smac-N5 or N7 peptides | interaction with full length XIAP (full length XIAP): able to interact | interaction with isolated BIR3 domain of XIAP [4]: able to interact

B1: Δlinker: caspase-9 with residues 316 to 330 of SEQ ID NO:1 deleted (protein, listed as Homo sapiens)
chain: MDEADRRLLRRCRLRLVEELQVDQLWDALLSRELFRPHMIEDIQRAGSGSRRDQARQLIIDLETRGSQALPLFISCLEDTGQDMLASFLRTNRQAAKLSKPTLENLTPVVLRPEIRKPEVLRPETPRPVDIGSGGFGDVGALESLRGNADLAYILSMEPCGHCLIINNVNFCRESGLRTRTGSNIDCEKLRRRFSSLHFMVEVKGDLTAKKMVLALLELAQQDHGALDCCVVVILSHGCQASHLQFPGAVYGTDGCPVSVEKIVNIFNGTSCPSLGGKPKLFFIQACGGEQKDHGFEVASTSPEDESPGSNPEPDAISSLPTPSDIFVSYSTFPGFVSWRDPKSGSWYVETLDDIFEQWAHSEDLQSLLLRVANAVSVKGIYKQMPGCFNFLRKKLFFKTS
ability to interact with BIR3 (Far western, FIG. 12B) (XIAP [5]; recombinant caspase-9 mutants): lost significantly the ability to interact | enzymatic activity (DEVD-AMC cleaving) in presence of XIAP-BIR3 (XIAP-BIR3): did not inhibit enzymatic activity, even in the presence of XIAP-BIR3

Now from value to molecule, other results behind:

inhibition of binding of caspase-9-p12 to BIR3 [1]: completely inhibited
Molecule: AVPIAQK [Smac-N7, AVPIAQK]

binding of XIAP by Far Western (XIAP [5]; proteins on nitrocellulose membrane, denatured and renatured): not able to bind | binding result [6]: no binding
B2: triple mutant procaspase-9 (E306/D315/D330A) (enzyme)
chain: MDEADRRLLRRCRLRLVEELQVDQLWDALLSRELFRPHMIEDIQRAGSGSRRDQARQLIIDLETRGSQALPLFISCLEDTGQDMLASFLRTNRQAAKLSKPTLENLTPVVLRPEIRKPEVLRPETPRPVDIGSGGFGDVGALESLRGNADLAYILSMEPCGHCLIINNVNFCRESGLRTRTGSNIDCEKLRRRFSSLHFMVEVKGDLTAKKMVLALLELAQQDHGALDCCVVVILSHGCQASHLQFPGAVYGTDGCPVSVEKIVNIFNGTSCPSLGGKPKLFFIQACGGEQKDHGFEVASTSPEDASPGSNPEPAATPFQEGLRTFDQLAAISSLPTPSDIFVSYSTFPGFVSWRDPKSGSWYVETLDDIFEQWAHSEDLQSLLLRVANAVSVKGIYKQMPGCFNFLRKKLFFKTS
notes: Unprocessed protein; also called uncleavable caspase-9; mutant caspase-9
processing procaspase-3 C163A or inducing DEVD-AMC cleavage (procaspase-3 C163A): as efficient as the fully processed WT caspase-9
